17 compounds from patent publication US20260215418A1, “HYDROCARBON ALCOHOLS AND THEIR DERIVATIVES AS SYNERGISTS IN PESTICIDE ACTIVITY” (priority 2022, published 2026) can be followed below.

Read-outs that look alike come from different tables or passages of the source.

In one data set the test system is Blatta orientalis. The settings on record: for synergizing effect on Cypermethrin / Mortality %/time (h) (application): Blatta orientalis; for synergizing effect on Cypermethrin: synergist applied with Cypermethrin; for Mortality %: insects on treated tile; for Mortality %/time (h) (application): Table 37, concentrations in mg/ml in label. Here is the method: Method: Contact test on non-porous tile measuring 400 cm^2 at a temperature of 28° C. Test duration: up to 72 hours after exposure of the insect to the insecticidal active substance.
(§1) Three tests were performed in parallel, A, B, and C, as follows: • A) Comparative. 1 ml of Composition 2 was applied to the tile. After waiting for the complete evaporation of the solvent, 10 cockroaches were placed on top of the treated tile, starting the test. • B) According to the invention. 1 ml of Composition 8b was distributed on the tile. After waiting for the complete evaporation of the solvent, 1 ml of Composition 2 was added to the same tile. Subsequently, after waiting for the solvent to evaporate, 10 cockroaches were placed on top of the treated tile, starting the test. • C) According to the invention. 1 ml of Composition 8b was distributed on a tile. After waiting for the complete evaporation of the solvent, 10 cockroaches were placed for 30 minutes on top of the treated tile. At the end of the 30 minutes, the cockroaches were transferred to an untreated area.
Method: Contact test on non-porous tile measuring 400 cm^2 at a temperature of 28° C. Test duration: up to 120 hours after exposure of the insect to the insecticidal active substance.
as §1, with “4a” for “2”, “8d” for “8b”, “After” for “Subsequently, after”
Six tests were performed in parallel, A, B, C, D, E and F, as follows: • A) Comparative. 1 ml of Composition 9b was distributed on the tile. After waiting for the complete evaporation of the solvent, 1 ml of Composition 4a was added to the same tile. Subsequently, after waiting for the solvent to evaporate, 10 cockroaches were placed on top of the treated tile, starting the test. • B) Comparative. 1 ml of Composition 9b was distributed on a tile. After waiting for the complete evaporation of the solvent, 10 cockroaches were placed for 30 minutes on top of the treated tile. At the end of the 30 minutes, the cockroaches were transferred to an untreated area. […] 1 ml of Composition 10b was distributed on the tile. After waiting for the complete evaporation of the solvent, 1 ml of Composition 4a was added to the same tile. Subsequently, after waiting for the solvent to evaporate, 10 cockroaches were placed on top of the treated tile, starting the test. • D) Comparative. 1 ml of Composition 10b was distributed on a tile. After waiting for the complete evaporation of the solvent, 10 cockroaches were placed for 30 minutes on top of the treated tile. At the end of the 30 minutes, the cockroaches were transferred to an untreated area. […] 1 ml of Composition 8d was distributed on the tile. After waiting for the complete evaporation of the solvent, 1 ml of Composition 4a was added to the same tile. Subsequently, after waiting for the solvent to evaporate, 10 cockroaches were placed on top of the treated tile, starting the test. • F) According to the invention. 1 ml of Composition 8d was distributed on a tile. After waiting for the complete evaporation of the solvent, 10 cockroaches were placed for 30 minutes on top of the treated tile. At the end of the 30 minutes, the cockroaches were transferred to an untreated area.

Another data set has as its system Musca domestica L. Kind of data set: Contact test on non-porous tile, Musca domestica. In kind it is in vivo. More on the design: Mortality %: concentration or dose not given beside the values. The settings on record: for Mortality %: insects on treated tile; for mortality at 680 µg/mL: 0.68 mg/ml. The method, then:
1 ml of Composition 1 was applied to the tile. […] 1 ml of Composition 8a was distributed on the tile. […] 1 ml of Composition 8a was distributed on a tile. […] At the end of the 30 minutes, the flies were transferred to an untreated area.
1 ml of Composition 3 was applied to the tile. […] 1 ml of Composition 8c was distributed on the tile. […] 1 ml of Composition 8c was distributed on a tile. […] At the end of the 30 minutes, the flies were transferred to an untreated area.
1 ml of Composition 9a was distributed on the tile. […] 1 ml of Composition 9a was distributed on a tile. […] At the end of the 30 minutes, the flies were transferred to an untreated area. […] 1 ml of Composition 10a was distributed on the tile. […] 1 ml of Composition 10a was distributed on a tile. […] At the end of the 30 minutes, the flies were transferred to an untreated area. […] 1 ml of Composition 8c was distributed on the tile. […] 1 ml of Composition 8c was distributed on a tile. […] At the end of the 30 minutes, the flies were transferred to an untreated area.
1 ml of Composition 5a, was distributed on the tile. […] 1 ml of Composition 6a was distributed on the tile. […] 1 ml of Composition 7a was distributed on the tile.
1 ml of Composition 3 was distributed on the tile. […] 1 ml of Composition 9a was distributed on the tile. […] 1 ml of Composition 11a was distributed on a tile. […] 1 ml of Composition 12a was distributed on a tile.
1 ml of Composition 3 was distributed on the tile. […] 1 ml of Composition 17a was distributed on a tile. […] 1 ml of Composition 18a was distributed on a tile. […] Each experiment (A-C) was conducted in duplicate.
1 ml of Composition 23a was distributed on the tile. […] 1 ml of Composition 20a was distributed on a tile. […] Each experiment (A-B) was conducted in duplicate.
1 ml of Composition 3 was distributed on the tile. […] 1 ml of Composition 25a was distributed on a tile. […] Each experiment (A-B) was conducted in duplicate.
1 ml of Composition 23a was distributed on the tile. […] 1 ml of Composition 27a was distributed on a tile. […] Each experiment (A-B) was conducted in duplicate.
1 ml of Composition 26a was distributed on a tile. […] 1 ml of Composition 26b was distributed on a tile. […] 1 ml of Composition 26c was distributed on a tile.
1 ml of Composition 22a was distributed on a tile. […] 1 ml of Composition 22b was distributed on a tile. […] 1 ml of Composition 22c was distributed on a tile.
1 ml of Composition 23a was distributed on the tile. […] 1 ml of Composition 44a was distributed on a tile.
1 ml of Composition 33 was distributed on a tile. […] 1 ml of Composition 33 was distributed on a tile. […] At the end of the 30 minutes, the flies were transferred to an untreated area.
1 ml of Composition 1 was distributed on the tile. […] 1 ml of Composition 34 was distributed on a tile. […] 1 ml of Composition 34 was distributed on a tile. […] At the end of the 30 minutes, the flies were transferred to an untreated area.
1 ml of Composition 3 was distributed on the tile. […] 1 ml of Composition 31a was distributed on a tile. […] 1 ml of Composition 31b was distributed on a tile. […] 1 ml of Composition 31b was distributed on a tile. […] At the end of the 30 minutes, the flies were transferred to an untreated area. […] 1 ml of Composition 38a was distributed on a tile. […] 1 ml of Composition 38a was distributed on a tile. […] At the end of the 30 minutes, the flies were transferred to an untreated area.
G) According to the invention. 1 ml of Composition 40a was distributed on a tile. […] Subsequently, after waiting for the solvent to evaporate, 10 flies were placed on top of the treated til

[1] abbreviates: Musca domestica, single substance alone, 48 h, read-out: Mortality %/time (h).

For the compound `CCCCCCCCOC(C)=O` [n-Octyl acetate], in the data set on Blatta orientalis, the “synergizing effect on Cypermethrin” value is “excellent-fine synergizing effect”.
On to `COP(=O)(OC)SCn1c(=O)oc2cc(Cl)cnc21` [Composition 23b, Azamethiphos], for which the Mortality % in the data set on Blatta orientalis (Example 15, 21° C, 24 h) is 10%; in the data set on Blatta orientalis (Example 15, 21° C, 48 h), 17%; with Blatta orientalis (Example 15, 21° C, 72 h), 23%; in the data set with Blatta orientalis (Example 21, 25° C, 48 h) it was 17%; in the data set on Blatta orientalis (Example 25, 21° C, 24 h) it was 10%; with Blatta orientalis (Example 25, 21° C, 48 h), 17%. In the data set on Blatta orientalis (Example 25, 21° C, 72 h), this compound yielded a Mortality % of 23%. For the same compound, in the data set on Blatta orientalis (48 h), the “Mortality %/time (h) (application)” value was 17/48 ^ %.
In the case of `CCCCCCCCCCCCOC(C)=O` [dodecyl acetate], the “synergizing effect on Cypermethrin” value in the data set on Blatta orientalis is “excellent-fine synergizing effect”.
For the compound `COP(=O)(OC)SCn1c(=O)oc2cc(Cl)cnc21` [Azamethiphos], the mortality at 6900 µg/mL with Musca domestica L. (Musca domestica, 48 h, read-out: Mortality %/time (h)) stood at 23%.
Take `CC1(C)C(C=C(Cl)Cl)C1C(=O)OC(C#N)c1cccc(Oc2ccccc2)c1` (stereo not shown) [Composition 3, Cypermethrin, reference compound]: the Mortality % in the data set with Musca domestica L. (Example 3, 26° C, 24 h) is given as 10%; in the data set with Musca domestica L. (Example 3, 26° C, 48 h) it was 20%; in the data set on Musca domestica L. (Example 9, 21° C, 24 h) it was 5%; in the data set on Musca domestica L. (Example 9, 21° C, 48 h) it was 16%; in the data set with Musca domestica L. (Example 12, 21° C, 24 h) it was 5%; in the data set with Musca domestica L. (Example 12, 21° C, 48 h) it was 16%. Besides, the Mortality % is listed as 16% in the data set on Musca domestica L. (Example 17, 21° C, 48 h); 10% in the data set with Musca domestica L. (Example 29, 25° C, 24 h); 16% with Musca domestica L. (Example 29, 25° C, 48 h).
In the case of “Spinosad [Composition 43, reference compound]”, the Mortality % with Musca domestica L. (Example 19, 25° C, 24 h) came to 27%; in the data set with Musca domestica L. (Example 23, 25° C, 24 h), 27%; in the data set with Musca domestica L. (Example 27, 25° C, 24 h), 27%.
Turning to `CCCCCCCCOC(=O)OCCCCCCCC` [Composition 18b, Dioctyl carbonate], the “Mortality %/time (h) (application)” value with Blatta orientalis (48 h) is listed as 0/48 ^ %.
On the same count and under the same terms, the figure for `CCCCC(CC)COC(=O)OCC(CC)CCCC` (stereo not shown) [Composition 17b, Bis(2-ethyl-hexyl)-carbonate] is 0/48 ^ %.
On to `CCCCCCC(O)CO` (stereo not shown) [1,2-octandiol], for which the mortality at 680 µg/mL in the data set on Musca domestica L. (setting [1]) came to 0%.
Take `CCCCCCCCCCC(O)CO` (stereo not shown) [1,2-dodecandiol]: the mortality at 680 µg/mL in the data set on Musca domestica L. (setting [1]) was found to be 0%.
As for `CC1(C)C(C=C(Cl)Cl)C1C(=O)OC(C#N)c1cccc(Oc2ccccc2)c1` (stereo not shown) [Composition 46a, Cypermethrin, reference compound], the Mortality % was found to be 5% in the data set with Musca domestica L. (Example 35, 25° C, 24 h) and 10% with Musca domestica L. (Example 35, 25° C, 48 h).
Consider `CCCCCCCCCCCCO` [Dodecanol], for which the mortality at 680 µg/mL in the data set with Musca domestica L. (setting [1]) was 4%.
Take Alcohol oleic [Composition 20b]: in the data set with Blatta orientalis (48 h), the “Mortality %/time (h) (application)” value is reported as 0/48 ^ %.
Same read-out and setting: as for `CCCCCCCC/C=C\CCCCCCCCOC(C)=O` [Composition 25b, Oleyl acetate], the figure is 0/48 ^ %.
On to `CC1(C)C(C=C(Cl)Cl)C1C(=O)OC(C#N)c1cccc(Oc2ccccc2)c1` (stereo not shown) [Cypermethrin], for which, in the data set on Musca domestica L. (Musca domestica, single substance alone, 0.23 mg/ml, 48 h, read-out: Mortality %/time (h)), the mortality at 230 µg/mL worked out at 10%. The mortality at 450 µg/mL in the data set on Musca domestica L. (Musca domestica, single substance alone, 0.45 mg/ml, 48 h, read-out: Mortality %/time (h)) was 16%.
On to `COP(=O)(OC)SCn1c(=O)oc2cc(Cl)cnc21` [Composition 23a, Azamethiphos, reference compound], for which the Mortality % was determined as 23% in the data set with Musca domestica L. (Example 14, 21° C, 48 h); 23% with Musca domestica L. (Example 18, 21° C, 24 h); 10% in the data set with Musca domestica L. (Example 24, 25° C, 24 h); 10% with Musca domestica L. (Example 30, 25° C, 24 h); 23% with Musca domestica L. (Example 30, 25° C, 48 h).
With `OCCCCCCCCO` [1,8-octandiol], the mortality at 680 µg/mL in the data set on Musca domestica L. (setting [1]) was determined as 0%.
